Measured values: publication PMC10482825 (Scientific Reports, 2023)
In brackets after ≈: the same amount, converted by molar mass. Where a SMILES comes first, the peptide text is derived from it.

Key:
MRSA = format: cell-based, Methicillin-resistant Staphylococcus aureus (ATCC, BAA-41); conditions: micro-broth dilution, 3 h peptide treatment then MHB 18 h, 37 °C, OD 600 nm
Source text: (§1) The microbial strains used in this study were Bacillus subtilis (ATCC, 11774), Candida albicans (TIMM, 1768), Enterococcus faecalis (ATCC, 33186), Escherichia coli (ATCC, 11775), Klebsiella pneumoniae (ATCC, 13883), Methicillin-resistant Staphylococcus aureus (ATCC, BAA-41), Pseudomonas aeruginosa (ATCC, 10145), Salmonella enterica (ATCC, 14028), Serratia marcescens (ATCC, 13880), Staphylococcus aureus (ATCC, 25923) and Vibrio parahaemolyticus (ATCC, 17802). All microbial strains were cultivated overnight at 37 °C and 200 rpm, then subcultured and incubated for 3 h under the same incubation conditions to obtain the mid-logarithmic growth phase. The cultivated cells were washed twice with 10 mM Tris–HCl containing 5 mM D-glucose at pH 7.4 and suspended in the same buffer to be used in different assays, as previously described.
(§2) As a conclusive quantitative assessment, broth microtiter assay was used to determine the MIC values of each cryptide against B. subtilis, MRSA, S. enterica, P. aeruginosa, V. parahaemolyticus and C. albicans by following the guidelines of the Clinical and Laboratory Standards Institute (CLSI)[67], with slight modifications. Eighty microliters of 5 × 10^4 CFU/ml of each pathogen were dispensed into a 96-well polypropylene microtiter plate. The wells were then treated with 20 µl of serially diluted cryptides for 3 h at 37 °C. Gentamicin was used for positive controls at 0.2 mg/ml while an equivalent volume of acidified water was used for negative controls. The plates were then topped up with a final concentration of 1 × Mueller Hinton Broth (MHB) and incubated for 18 h under the same incubation conditions. MIC was detected as the lowest concentration of each cryptide that prevents the optically detectable microbial growth at OD = 600 nm.

S. enterica [1] = format: cell-based, Salmonella enterica (ATCC, 14028); conditions: micro-broth dilution, 3 h peptide treatment then MHB 18 h, 37 °C, OD 600 nm
Source text: as §1, §2

HEK-293 = experiment: MTT cytotoxicity on normal cells; format: cell-based, human; conditions: 25 µM (highest tested concentration), 24 h, serum-free medium
Description: The used mammalian cell lines in our study were colorectal adenocarcinoma (Caco2, ATCC-HTB-37), colorectal carcinoma (HCT 116, ATCC-CCL-247), lung carcinoma (A549, ATCC- CCL-185), cervical cancer cells (HeLa, ATCC-CCL-2), neuroblastoma (SH-SY5Y, ATCC- CRL-2266), rhabdomyosarcoma (RD, ATCC- CCL-136) and human embryonic kidney cells (HEK 293, ATCC- CRL-1573). All the cells were maintained into Dulbecco’s Modified Eagle’s Medium (DMEM) supplemented with 10% heat-inactivated fetal bovine serum, 2 mM L-Glutamine, 100 U/ml penicillin–streptomycin (Pen/Strep) at 37 °C in 5% CO2 humidified incubator.
First, the cytotoxic effect of 24 h serum deprivation on all the selected cell lines was evaluated by MTT assay, following standard protocols. Briefly, cells were seeded and maintained at 37 °C and 5% CO2 in 24-well plates until they reached 75–80% confluency (zero time). Following washing twice with 1X PBS, cells were incubated in a serum-free medium for 24 h, under the same incubation conditions. The cell viability percentages were calculated and compared to zero time as 100% viability to nullify any possible effects of serum deprivation. Thence, the cell viability percentage of each cell line in response to 24 h treatment with different concentrations of each cryptide in serum-free medium was calculated. […] All the measured cell viability percentages were normalised against the corresponding negative controls.

human RBCs = experiment: Hemolytic assay; format: cell-based; conditions: 2% RBCs in PBS, 2 h, 37 °C, supernatant at 450 nm, 0.1% TritonX-100 = maximum; highest tested concentration 100 µM
Description: All methods were carried out in accordance with the Declaration of Helsinki, and the Research Ethics Committee approved all experimental protocols at Sunway University (approval no. PGSUREC2020/005). A human blood sample was collected from a healthy person for this assay upon obtaining informed consent. The fresh blood sample was centrifuged at 3700 g for 5 min at RT. The supernatant (serum) was removed and red blood cells (RBCs) were washed three times with 1X PBS and diluted to a final concentration of 2% (PBS—137 mM NaCl, 2.7 mM KCl, 10 mM Na2HPO4, 1.76 mM KH2PO4). Cells were stored at 4 °C, and used within 5 h.
The hemolytic activities of the identified cryptides were evaluated as previously described. The prepared RBCs were treated with different peptide concentrations for 2 h at 37 °C. The treated RBCs were centrifuged, under the same centrifugation conditions, and the supernatants were transferred to a 96-well plate and measured at 450 nm.

S. enterica [2] = format: cell-based, Salmonella enterica (ATCC, 14028); conditions: 20 µl of wells without growth on agar, 18 h, 37 °C
C. albicans = format: cell-based, Candida albicans (TIMM, 1768); conditions: 20 µl of wells without growth on Sabouraud 4% Dextrose Agar, 18 h, 37 °C
B. subtilis = experiment: Radial diffusion assay; format: cell-based, Bacillus subtilis (ATCC, 11774); conditions: 5 µl of 500 µM per 3 mm well, 37 °C, mean ± SD
Source text: as §1
The antimicrobial activity spectra of the selected cryptides were screened against all the mentioned microbial pathogens, except V. parahaemolyticus, by radial diffusion assay as previously described, with slight modifications. […] The plates were then incubated for 18 h, and the antimicrobial activities were measured in the absolute unit (AU), as previously described. […]
plate. The plates were then incubated for 12 h at 37 °C and antimicrobial activities were measured in the term of absolute unit (A.U). […]

Compound	MIC (µM) MRSA (MRSA) [µM]	MIC (µM) S. enterica (S. enterica [1]) [µM]	Cell death of HEK-293 (HEK-293)	Hemolysis of human RBCs at 100 µM (human RBCs) [%]	MBC (µM) S. enterica (S. enterica [2]) [µM]	MFC (µM) C. albicans (C. albicans) [µM]	Antimicrobial activity (inhibition zone) B. subtilis (B. subtilis) [A.U.]
CC(C)C[C@H](NC(=O)[C@H](CCCNC(=N)N)NC(=O)[C@H](Cc1c[nH]c2ccccc12)NC(=O)[C@H](CCCNC(=N)N)NC(=O)[C@H](CC(C)C)NC(=O)[C@@H](N)Cc1ccccc1)C(=O)N[C@@H](CCCCN)C(=O)N[C@@H](Cc1ccccc1)C(=O)N[C@@H](CCCCN)C(=O)N[C@@H](CO)C(=O)N[C@@H](CCCCN)C(=O)N[C@H](C(=O)N[C@@H](Cc1c[nH]c2ccccc12)C(=O)N[C@@H](CS)C(=O)N1CCC[C@H]1C(=O)O)C(C)C [AD7] (H-FLRWRLKFKSKVWCP-OH)	3.12 (≈ 6.22 µg/mL)	0.78 (≈ 1.56 µg/mL)	less than 10%	26.5	0.78 (≈ 1.56 µg/mL)	6.25 (≈ 12.5 µg/mL)	–
RHCLRSKRPPNVCPH [AD4, cationic cryptide from P. vannamei precursor DN34505 (Pl-crustin 2), chemically synthesised]	6.25	3.12	less than 10%	–	3.12	25	13.8± 0.7
CSCC[C@H](NC(=O)[C@H](CCCCN)NC(=O)CNC(=O)[C@H](CCCCN)NC(=O)[C@H](Cc1ccc(O)cc1)NC(=O)[C@H](CC(N)=O)NC(=O)[C@H](CC(C)C)NC(=O)[C@H](CCC(N)=O)NC(=O)[C@H](CC(C)C)NC(=O)[C@@H](N)CCCNC(=N)N)C(=O)N[C@@H](Cc1c[nH]c2ccccc12)C(=O)N[C@@H](CS)C(=O)N1CCC[C@H]1C(=O)NCC(=O)N[C@@H](Cc1c[nH]c2ccccc12)C(=O)O [AD11] (H-RLQLNYKGKMWCPGW-OH)	6.25 (≈ 11.8 µg/mL)	1.56 (≈ 2.93 µg/mL)	less than 10%	20.7	1.56 (≈ 2.93 µg/mL)	25 (≈ 47 µg/mL)	–
